Experimental data published in ChEMBL document CHEMBL1201862, “PubChem BioAssay data set” (2004).
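These data come from cells grown in 96-well plates and exposed to compound for 48 hours at five concentrations. GI50 marks 50% less growth.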 Activity calls are given as the source filed them. Cut-off read from the data, not from the text of the source: active = GI50 up to about 1.1 µM and inactive = higher.

How the values were obtained:
Experiment in all cases: inhibition of tumour cell growth, NCI panel, 48 h
HCC 2998 = tested on: HCC 2998
MCF7 = tested on: MCF7
HCT-15 = tested on: HCT-15
SNB-75 = tested on: SNB-75
NCI-H522 = tested on: NCI-H522
CCRF-CEM = tested on: CCRF-CEM
SK-MEL-2 = tested on: SK-MEL-2
NCI-H226 = tested on: NCI-H226
HT-29 = tested on: HT-29
SF-539 = tested on: SF-539
A549 = tested on: A549
LOX IMVI = tested on: LOX IMVI
RXF 393 = tested on: RXF 393
KM12 = tested on: KM12
OVCAR-3 = tested on: OVCAR-3
UACC-62 = tested on: UACC-62
COLO 205 = tested on: COLO 205
HL-60 = tested on: HL-60
M14 = tested on: M14
MDA-MB-435 = tested on: MDA-MB-435

| SMILES | GI50 (HCC 2998) | GI50 (MCF7) | GI50 (HCT-15) [µM] | GI50 (SNB-75) | GI50 (NCI-H522) | GI50 (CCRF-CEM) | GI50 (SK-MEL-2) | GI50 (NCI-H226) | GI50 (HT-29) | GI50 (SF-539) | GI50 (A549) | GI50 (LOX IMVI) | GI50 (RXF 393) | GI50 (KM12) | GI50 (OVCAR-3) | GI50 (UACC-62) | GI50 (COLO 205) | GI50 (HL-60) | GI50 (M14) | GI50 (MDA-MB-435) |
| --- | --- | --- | --- | --- | --- | --- | --- | --- | --- | --- | --- | --- | --- | --- | --- | --- | --- | --- | --- | --- |
| C/C=C/c1cc2c(c(=O)o1)C(=O)[C@@H](O)[C@H](C)O2 | 10.3 µM (inactive) | 4.08 µM (inactive) | 11.2 | 18.7 µM (inactive) | 7.91 µM (inactive) | 5.46 µM (inactive) | 18.8 µM (inactive) | 16.9 µM (inactive) | 14.4 µM (inactive) | 18.6 µM (inactive) | 19.7 µM (inactive) | 12.6 µM (inactive) | 12.3 µM (inactive) | 14.4 µM (inactive) | 17.7 µM (inactive) | 17.5 µM (inactive) | 11.4 µM (inactive) | 4.32 µM (inactive) | – | – |
| COc1ccc(Nc2nc3ccccc3nc2-c2cccs2)cc1 | 75 µM (inactive) | – | > 100 | 28.6 µM (inactive) | 59.4 µM (inactive) | > 100 µM (inactive) | > 100 µM (inactive) | > 100 µM (inactive) | – | > 100 µM (inactive) | 80.4 µM (inactive) | > 100 µM (inactive) | > 100 µM (inactive) | > 100 µM (inactive) | > 100 µM (inactive) | > 100 µM (inactive) | > 100 µM (inactive) | 17.5 µM (inactive) | 47.1 µM (inactive) | – |
| CCCCCCCCCC/C=C/C=O | > 100 µM (inactive) | – | > 100 | > 100 µM (inactive) | > 100 µM (inactive) | > 100 µM (inactive) | > 100 µM (inactive) | – | > 100 µM (inactive) | > 100 µM (inactive) | > 100 µM (inactive) | > 100 µM (inactive) | > 100 µM (inactive) | > 100 µM (inactive) | > 100 µM (inactive) | > 100 µM (inactive) | > 100 µM (inactive) | 56.1 µM (inactive) | > 100 µM (inactive) | – |
| C=CC[N+](CCO)(CCO)CCCCCCCCCCCCCCCCCC | 3.23 µM (inactive) | 7.1 µM (inactive) | 12.8 | 2.43 µM (inactive) | 3.77 µM (inactive) | 1.23 µM (inactive) | 14.5 µM (inactive) | 7.78 µM (inactive) | 3.08 µM (inactive) | 3.54 µM (inactive) | 11.3 µM (inactive) | 2.75 µM (inactive) | 2.19 µM (inactive) | 1.99 µM (inactive) | 5.11 µM (inactive) | 4.58 µM (inactive) | 3.36 µM (inactive) | 0.714 µM (active) | – | – |
| O=C(/C(=C/c1ccc(O)cc1)c1ccccc1)c1ccccc1 | 17.4 µM (inactive) | – | 18 | 16.7 µM (inactive) | 15.2 µM (inactive) | 20 µM (inactive) | 11.6 µM (inactive) | 16.7 µM (inactive) | 18.1 µM (inactive) | 16.6 µM (inactive) | 18 µM (inactive) | 13.2 µM (inactive) | – | 15.7 µM (inactive) | – | 14.1 µM (inactive) | 17.5 µM (inactive) | 13.6 µM (inactive) | 17.1 µM (inactive) | – |
| COc1cc2oc(-c3ccc(O)cc3)cc(=O)c2c(O)c1C1OC(CO)C(O)C(O)C1O (stereo not given) | > 100 µM (inactive) | – | > 100 | > 100 µM (inactive) | > 100 µM (inactive) | > 100 µM (inactive) | > 100 µM (inactive) | > 100 µM (inactive) | > 100 µM (inactive) | > 100 µM (inactive) | > 100 µM (inactive) | > 100 µM (inactive) | – | > 100 µM (inactive) | > 100 µM (inactive) | > 100 µM (inactive) | > 100 µM (inactive) | > 100 µM (inactive) | > 100 µM (inactive) | – |
| CCCCN(CC)c1nc(C)nc2c1c(C)c(C)n2-c1c(C)cc(C)cc1C [ANTALARMIN] | – | – | 13.6 | 14.3 µM (inactive) | 12.8 µM (inactive) | 11.3 µM (inactive) | 12.9 µM (inactive) | 14.8 µM (inactive) | 10.5 µM (inactive) | 2.69 µM (inactive) | 14.2 µM (inactive) | 15.6 µM (inactive) | 6.93 µM (inactive) | 17.6 µM (inactive) | 13.3 µM (inactive) | – | 15.6 µM (inactive) | 4.1 µM (inactive) | 17.9 µM (inactive) | 17.1 µM (inactive) |
| N#CCC(=O)N/N=C1/C(=O)N(c2ccc(Cl)cc2)C(=O)C(=O)C1c1nc2ccccc2s1 (stereo not given) | > 100 µM (inactive) | – | > 100 | 20.8 µM (inactive) | 46.3 µM (inactive) | – | 89.9 µM (inactive) | 26.3 µM (inactive) | > 100 µM (inactive) | – | > 100 µM (inactive) | 38.2 µM (inactive) | 25.8 µM (inactive) | > 100 µM (inactive) | > 100 µM (inactive) | 60.3 µM (inactive) | > 100 µM (inactive) | – | > 100 µM (inactive) | – |
